Measurements reported in paper PMC5218480 (PLoS ONE, 2017).

Tested on: MV-4-11 cells
Experiment: Gene expression microarray analysis (Affymetrix PrimeView) and GSEA
Format: cell-based, human
Design: RFU PODN (11730768_x_at) / Fold change /veh PODN (11730768_x_at) / RFU LINC00158 (11744669_a_at) / Fold change /veh LINC00158 (11744669_a_at) / RFU DUSP10 (11751237_a_at) / Fold change /veh DUSP10 (11751237_a_at) / RFU ID3 (11757404_x_at) / Fold change /veh ID3 (11757404_x_at) / RFU PLEKHG5 (11737974_s_at) / Fold change /veh PLEKHG5 (11737974_s_at) / RFU LRRC4B (11730491_at) / Fold change /veh LRRC4B (11730491_at) / RFU GIMAP4 (11747438_a_at) / Fold change /veh GIMAP4 (11747438_a_at) / RFU KRT8 (11758183_x_at) / Fold change /veh KRT8 (11758183_x_at) / RFU CNN1 (11734310_a_at) / Fold change /veh CNN1 (11734310_a_at) / RFU VPS37D (11726825_at) / Fold change /veh VPS37D (11726825_at) / RFU C10orf10 (11716522_x_at) / Fold change /veh C10orf10 (11716522_x_at) / RFU KIR2DL2 /// KIR2DL4 /// KIR2DL5A /// KIR2DL5B /// KIR2DS1 /// KIR2DS2 /// KIR2DS3 /// KIR2DS4 /// KIR3DL3 /// KIR3DL3 /// KIR3DS1 (11738374_at) / Fold change /veh KIR2DL2 /// KIR2DL4 /// KIR2DL5A /// KIR2DL5B /// KIR2DS1 /// KIR2DS2 /// KIR2DS3 /// KIR2DS4 /// KIR3DL3 /// KIR3DL3 /// KIR3DS1 (11738374_at) / RFU C1QL1 (11718748_at) / Fold change /veh C1QL1 (11718748_at) / RFU TMPRSS4 (11747572_a_at) / Fold change /veh TMPRSS4 (11747572_a_at) / RFU HAMP (11756126_x_at) / Fold change /veh HAMP (11756126_x_at) / RFU RNFT2 (11725882_a_at) / Fold change /veh RNFT2 (11725882_a_at) / RFU NR4A2 (11747474_a_at) / Fold change /veh NR4A2 (11747474_a_at) / RFU ABCC12 (11746883_a_at) / Fold change /veh ABCC12 (11746883_a_at) / RFU TMEM136 (11760407_x_at) / Fold change /veh TMEM136 (11760407_x_at) / RFU CLDN22 /// WWC2 (11732394_at) / Fold change /veh CLDN22 /// WWC2 (11732394_at) / RFU HLA-DPB1 (11760878_x_at) / Fold change /veh HLA-DPB1 (11760878_x_at) / RFU SPINT1 (11716480_a_at) / Fold change /veh SPINT1 (11716480_a_at) / RFU GAP43 (11754022_s_at) / Fold change /veh GAP43 (11754022_s_at) / RFU A4GNT (11735810_at) / Fold change /veh A4GNT (11735810_at) / RFU PRB3 (11715151_x_at) / Fold change /veh PRB3 (11715151_x_at) / RFU TUBB4B (11761932_at) / Fold change /veh TUBB4B (11761932_at) / RFU CAPN14 (11732068_a_at) / Fold change /veh CAPN14 (11732068_a_at) / RFU TMCC2 (11721928_a_at) / Fold change /veh TMCC2 (11721928_a_at) / RFU IRGQ (11745062_a_at) / Fold change /veh IRGQ (11745062_a_at) / RFU FAM174B (11720279_a_at) / Fold change /veh FAM174B (11720279_a_at) / RFU TMPRSS4 (11748680_a_at) / Fold change /veh TMPRSS4 (11748680_a_at) / RFU FAM212B (11763350_a_at) / Fold change /veh FAM212B (11763350_a_at) / RFU PLEKHG5 (11743358_a_at) / Fold change /veh PLEKHG5 (11743358_a_at) / RFU ZSCAN30 (11745921_a_at) / Fold change /veh ZSCAN30 (11745921_a_at) / RFU CMKLR1 (11741424_a_at) / Fold change /veh CMKLR1 (11741424_a_at) / RFU LOC101060620 /// MAPK8IP1 (11723275_at) / Fold change /veh LOC101060620 /// MAPK8IP1 (11723275_at) / RFU SPTSSB (11747773_x_at) / Fold change /veh SPTSSB (11747773_x_at) / RFU PRSS12 (11739890_at) / Fold change /veh PRSS12 (11739890_at) / RFU BIN1 (11741810_x_at) / Fold change /veh BIN1 (11741810_x_at) / RFU WNT11 (11732464_a_at) / Fold change /veh WNT11 (11732464_a_at) / RFU C10orf10 (11716521_a_at) / Fold change /veh C10orf10 (11716521_a_at) / RFU C5orf56 (11738089_at) / Fold change /veh C5orf56 (11738089_at) / RFU CYB561 (11721691_x_at) / Fold change /veh CYB561 (11721691_x_at) / RFU ANKRD19P (11752326_a_at) / Fold change /veh ANKRD19P (11752326_a_at) / RFU OR2T12 /// OR2T33 /// OR2T8 (11738714_s_at) / Fold change /veh OR2T12 /// OR2T33 /// OR2T8 (11738714_s_at) / RFU VCAN (11748164_a_at) / Fold change /veh VCAN (11748164_a_at) / RFU JSRP1 (11732532_at) / Fold change /veh JSRP1 (11732532_at) / RFU KRTAP10-11 (11738290_x_at) / Fold change /veh KRTAP10-11 (11738290_x_at) / RFU MYO3A (11730013_a_at) / Fold change /veh MYO3A (11730013_a_at) / RFU EBF3 (11725865_a_at) / Fold change /veh EBF3 (11725865_a_at) / RFU CAMK2N1 (11719241_x_at) / Fold change /veh CAMK2N1 (11719241_x_at) / RFU C5orf56 (11738088_a_at) / Fold change /veh C5orf56 (11738088_a_at) / RFU OLFML3 (11715873_a_at) / Fold change /veh OLFML3 (11715873_a_at) / RFU LOC100653217 /// NTM (11731650_a_at) / Fold change /veh LOC100653217 /// NTM (11731650_a_at) / RFU MAPK11 (11762145_a_at) / Fold change /veh MAPK11 (11762145_a_at) / RFU FIZ1 (11724087_x_at) / Fold change /veh FIZ1 (11724087_x_at) / RFU OASL (11726364_x_at) / Fold change /veh OASL (11726364_x_at) / RFU SOX15 (11748057_x_at) / Fold change /veh SOX15 (11748057_x_at) / RFU CD79A (11719716_a_at) / Fold change /veh CD79A (11719716_a_at) / RFU HIST1H1D (11736915_at) / Fold change /veh HIST1H1D (11736915_at) / RFU CASKIN2 (11723855_a_at) / Fold change /veh CASKIN2 (11723855_a_at) / RFU LOC730098 (11760151_x_at) / Fold change /veh LOC730098 (11760151_x_at) / RFU OR4N2 (11742367_at) / Fold change /veh OR4N2 (11742367_at) / RFU PRRT2 (11749266_a_at) / Fold change /veh PRRT2 (11749266_a_at) / RFU SNX32 (11753110_a_at) / Fold change /veh SNX32 (11753110_a_at) / RFU CDHR5 (11726645_a_at) / Fold change /veh CDHR5 (11726645_a_at) / RFU RCAN1 (11760418_a_at) / Fold change /veh RCAN1 (11760418_a_at) / RFU FAM167A (11723789_a_at) / Fold change /veh FAM167A (11723789_a_at) / RFU FAM26E (11764081_at) / Fold change /veh FAM26E (11764081_at) / RFU ISYNA1 (11749810_s_at) / Fold change /veh ISYNA1 (11749810_s_at) / RFU ACY1 (11761880_at) / Fold change /veh ACY1 (11761880_at) / RFU 11764098_at / Fold change /veh 11764098_at / RFU SAMD14 (11745864_x_at) / Fold change /veh SAMD14 (11745864_x_at) / RFU NPB (11741838_a_at) / Fold change /veh NPB (11741838_a_at) / RFU TMPRSS6 (11731388_a_at) / Fold change /veh TMPRSS6 (11731388_a_at) / RFU KRTAP10-2 (11738614_at) / Fold change /veh KRTAP10-2 (11738614_at) / RFU ARHGAP8 /// PRR5-ARHGAP8 (11727945_x_at) / Fold change /veh ARHGAP8 /// PRR5-ARHGAP8 (11727945_x_at) / RFU KRTAP5-7 /// NADSYN1 (11734609_at) / Fold change /veh KRTAP5-7 /// NADSYN1 (11734609_at) / RFU RASL12 (11751679_a_at) / Fold change /veh RASL12 (11751679_a_at) / RFU CDKN2B (11736163_a_at) / Fold change /veh CDKN2B (11736163_a_at) / RFU PRF1 (11729649_at) / Fold change /veh PRF1 (11729649_at) / RFU, ZNF638 /// ZNF638-IT1 / Fold change vs veh, ZNF638 /// ZNF638-IT1 / RFU, PANK3 / Fold change vs veh, PANK3 / RFU, SH3YL1 / Fold change vs veh, SH3YL1 / RFU, ZEB2 / Fold change vs veh, ZEB2 / RFU, NRIP1 / Fold change vs veh, NRIP1 / RFU, PTTG1IP / Fold change vs veh, PTTG1IP / RFU, CAPN2 / Fold change vs veh, CAPN2 / RFU, MED14 / Fold change vs veh, MED14 / RFU, SNORA58 / Fold change vs veh, SNORA58 / RFU, C1orf63 / Fold change vs veh, C1orf63 / RFU, LRRFIP1 / Fold change vs veh, LRRFIP1 / RFU, NDUFAF7 / Fold change vs veh, NDUFAF7 / RFU, SLC12A2 / Fold change vs veh, SLC12A2 / RFU, IBTK / Fold change vs veh, IBTK / RFU, ESF1 / Fold change vs veh, ESF1 / Fold change vs veh, TMEM50B / RFU, TAOK1 / Fold change vs veh, TAOK1 / RFU, ACBD3 / Fold change vs veh, ACBD3 / RFU, TMA16 / Fold change vs veh, TMA16 / RFU, RWDD3 / Fold change vs veh, RWDD3 / RFU, BCAT1 / Fold change vs veh, BCAT1 / RFU, EDEM3 / Fold change vs veh, EDEM3 / RFU, TMEM33 / Fold change vs veh, TMEM33 / RFU, WDR75 / Fold change vs veh, WDR75 / RFU, AHCTF1 / Fold change vs veh, AHCTF1 / RFU, TFRC / Fold change vs veh, TFRC / RFU, ZDHHC17 / Fold change vs veh, ZDHHC17 / RFU, NOM1 / Fold change vs veh, NOM1 / RFU, ARL8B / Fold change vs veh, ARL8B / RFU, ZBTB11 / Fold change vs veh, ZBTB11 / RFU, TAMM41 / Fold change vs veh, TAMM41 / RFU, KIAA1704 /// LOC100996395 / Fold change vs veh, KIAA1704 /// LOC100996395 / RFU, ING1 / Fold change vs veh, ING1 / RFU, TRMT61B / Fold change vs veh, TRMT61B / RFU, FUBP3 / Fold change vs veh, FUBP3 / RFU, TP53 / Fold change vs veh, TP53 / RFU, TNKS2 / Fold change vs veh, TNKS2 / RFU, ZFP14 / Fold change vs veh, ZFP14 / RFU, ACTR2 / Fold change vs veh, ACTR2 / RFU, PPP3R1 / Fold change vs veh, PPP3R1 / RFU, PIK3R1 / Fold change vs veh, PIK3R1 / RFU, HNRNPA1 / Fold change vs veh, HNRNPA1 / RFU, RNF170 / Fold change vs veh, RNF170 / RFU, ZNF28 / Fold change vs veh, ZNF28 / RFU, RNGTT / Fold change vs veh, RNGTT / RFU, OGT / Fold change vs veh, OGT / RFU, BRD1 / Fold change vs veh, BRD1 / RFU, MARS / Fold change vs veh, MARS / RFU, ZNF655 / Fold change vs veh, ZNF655 / RFU, FAHD1 / Fold change vs veh, FAHD1 / RFU, BDP1 / Fold change vs veh, BDP1 / RFU, LRRCC1 / Fold change vs veh, LRRCC1 / RFU, ARID1A / Fold change vs veh, ARID1A / RFU, ZNF146 / Fold change vs veh, ZNF146 / RFU, ZNF330 / Fold change vs veh, ZNF330 / RFU, GPN3 / Fold change vs veh, GPN3 / RFU, C9orf123 / Fold change vs veh, C9orf123 / RFU, N4BP2L2 / Fold change vs veh, N4BP2L2 / RFU, ARFIP1 / Fold change vs veh, ARFIP1 / RFU, FAM179B / Fold change vs veh, FAM179B / RFU, BCL10 / Fold change vs veh, BCL10 / RFU, UHRF1BP1L / Fold change vs veh, UHRF1BP1L / RFU, BET1 / Fold change vs veh, BET1 / RFU, CNOT2 / Fold change vs veh, CNOT2 / RFU, ZNF268 / Fold change vs veh, ZNF268 / Fold change vs veh, ZNF507 / RFU, DGCR2 / Fold change vs veh, DGCR2 / RFU, WDSUB1 / Fold change vs veh, WDSUB1 / Fold change vs veh, HSP90B1 /// MIR3652 / RFU, ADSS / Fold change vs veh, ADSS / RFU, GK / Fold change vs veh, GK / RFU, ZNF148 / Fold change vs veh, ZNF148 / RFU, TAF9 / Fold change vs veh, TAF9 / RFU, SLC1A5 / Fold change vs veh, SLC1A5 / RFU, SLMO2 / Fold change vs veh, SLMO2 / RFU, ABCC4 / Fold change vs veh, ABCC4 / RFU, LOC101060439 /// RAP1B / Fold change vs veh, LOC101060439 /// RAP1B / RFU, RFX7 / Fold change vs veh, RFX7 / RFU, GTPBP10 / Fold change vs veh, GTPBP10 / RFU, CNEP1R1 / Fold change vs veh, CNEP1R1 / RFU, BIVM-ERCC5 /// ERCC5 / Fold change vs veh, BIVM-ERCC5 /// ERCC5 / RFU, ILF3 / Fold change vs veh, ILF3 / RFU 11762660_at / Fold change /veh 11762660_at / RFU VCAN (11757783_s_at) / Fold change /veh VCAN (11757783_s_at) / RFU DDX43 (11728927_at) / Fold change /veh DDX43 (11728927_at) / RFU KRT8 (11758188_x_at) / Fold change /veh KRT8 (11758188_x_at) / RFU NKD1 (11759106_at) / Fold change /veh NKD1 (11759106_at) / RFU SRD5A1 (11742802_a_at) / Fold change /veh SRD5A1 (11742802_a_at) / RFU TPSAB1 /// TPSB2 (11721975_s_at) / Fold change /veh TPSAB1 /// TPSB2 (11721975_s_at) / RFU GSTM3 (11746129_a_at) / Fold change /veh GSTM3 (11746129_a_at) / RFU IL23R (11737362_x_at) / Fold change /veh IL23R (11737362_x_at) / RFU TMEM51 (11727254_a_at) / Fold change /veh TMEM51 (11727254_a_at) / RFU PIWIL2 (11732686_x_at) / Fold change /veh PIWIL2 (11732686_x_at) / RFU ORM1 (11744905_x_at) / Fold change /veh ORM1 (11744905_x_at) / RFU CCDC152 (11743942_at) / Fold change /veh CCDC152 (11743942_at) / RFU ECM1 (11717891_a_at) / Fold change /veh ECM1 (11717891_a_at) / RFU IL23R (11748794_a_at) / Fold change /veh IL23R (11748794_a_at) / RFU TNFAIP8L3 (11732012_x_at) / Fold change /veh TNFAIP8L3 (11732012_x_at) / RFU MBOAT4 (11741988_at) / Fold change /veh MBOAT4 (11741988_at) / RFU 11764193_at / Fold change /veh 11764193_at / RFU TMEM53 (11763286_at) / Fold change /veh TMEM53 (11763286_at) / RFU MAGEB2 (11727129_at) / Fold change /veh MAGEB2 (11727129_at) / RFU TMEM200A (11744735_a_at) / Fold change /veh TMEM200A (11744735_a_at) / RFU CCDC152 (11751479_a_at) / Fold change /veh CCDC152 (11751479_a_at) / RFU FAM211A (11726209_a_at) / Fold change /veh FAM211A (11726209_a_at) / RFU RGS16 (11746705_a_at) / Fold change /veh RGS16 (11746705_a_at) / RFU VCAN (11755009_s_at) / Fold change /veh VCAN (11755009_s_at) / RFU RHOB (11743442_s_at) / Fold change /veh RHOB (11743442_s_at) / RFU RGS16 (11720943_a_at) / Fold change /veh RGS16 (11720943_a_at) / RFU RGS16 (11720944_at) / Fold change /veh RGS16 (11720944_at) / RFU, VPS4B / Fold change vs veh, VPS4B / RFU, CREB1 / Fold change vs veh, CREB1 / RFU, DNAJC13 / Fold change vs veh, DNAJC13 / RFU, GNAQ / Fold change vs veh, GNAQ / RFU, CDK5R1 / Fold change vs veh, CDK5R1 / RFU, ZRANB3 / Fold change vs veh, ZRANB3 / RFU, CUL4A / Fold change vs veh, CUL4A / RFU, CCNY / Fold change vs veh, CCNY / RFU, UFL1 / Fold change vs veh, UFL1 / RFU, COG3 / Fold change vs veh, COG3 / RFU, DIAPH2 / Fold change vs veh, DIAPH2 / RFU, SKA2 / Fold change vs veh, SKA2 / RFU, AFF3 / Fold change vs veh, AFF3 / RFU, LMF1 / Fold change vs veh, LMF1 / RFU, IPO11 / Fold change vs veh, IPO11 / RFU, DFFB / Fold change vs veh, DFFB / RFU, FOXP1 / Fold change vs veh, FOXP1 / RFU, CARD8 / Fold change vs veh, CARD8 / RFU, STRN3 / Fold change vs veh, STRN3 / RFU, ADK / Fold change vs veh, ADK / RFU, RASSF2 / Fold change vs veh, RASSF2 / RFU, WIPF1 / Fold change vs veh, WIPF1 / RFU, LARP1B / Fold change vs veh, LARP1B / RFU, RASA1 / Fold change vs veh, RASA1 / RFU, RB1 / Fold change vs veh, RB1 / RFU, PPFIA1 / Fold change vs veh, PPFIA1 / RFU, MAT2A / Fold change vs veh, MAT2A / RFU, CCT5 / Fold change vs veh, CCT5 / RFU, WDR92 / Fold change vs veh, WDR92 / RFU, CUX1 / Fold change vs veh, CUX1 / RFU, TTC7A / Fold change vs veh, TTC7A / RFU, TMEM135 / Fold change vs veh, TMEM135 / RFU, DEPTOR / Fold change vs veh, DEPTOR / RFU, CPM / Fold change vs veh, CPM / RFU, DNAJB6 / Fold change vs veh, DNAJB6 / RFU, CACNA2D3 / Fold change vs veh, CACNA2D3 / RFU, DTX4 / Fold change vs veh, DTX4 / RFU, TFCP2 / Fold change vs veh, TFCP2 / RFU, GMCL1 /// GMCL1P1 / Fold change vs veh, GMCL1 /// GMCL1P1 / RFU, AEBP2 / Fold change vs veh, AEBP2 / RFU, SNHG1 /// SNORD22 /// SNORD25 /// SNORD26 /// SNORD27 /// SNORD28 /// SNORD29 /// SNORD31 / Fold change vs veh, SNHG1 /// SNORD22 /// SNORD25 /// SNORD26 /// SNORD27 /// SNORD28 /// SNORD29 /// SNORD31 / Fold change (Aza/veh), C12orf56 (ProbeSet 11735607_a_at) / Fold change (ACY-1035/veh), C12orf56 (ProbeSet 11735607_a_at) / Fold change (Aza/veh), FGFR1OP (ProbeSet 11751329_s_at) / Fold change (ACY-1035/veh), FGFR1OP (ProbeSet 11751329_s_at) / Fold change (Aza/veh), VPS36 (ProbeSet 11739960_a_at) / Fold change (ACY-1035/veh), VPS36 (ProbeSet 11739960_a_at) / RFU SYPL1 (11715823_x_at) / Fold change /veh SYPL1 (11715823_x_at) / RFU IGFBP7 (11715501_s_at) / Fold change /veh IGFBP7 (11715501_s_at) / RFU REEP3 (11722064_at) / Fold change /veh REEP3 (11722064_at) / RFU IGLL1 (11728026_x_at) / Fold change /veh IGLL1 (11728026_x_at): dose or concentration left out as unconfirmed
Details: MV-4-11 cells, 48 hours

Nc1ccc(-c2cccs2)cc1NC(=O)c1ccc2c(c1)cc(C1CC1)n2CCN1CCOCC1 [ACY-1035]
RFU VCAN (11757783_s_at): 8.50 RFU
